Columns and labels:
[1] = molecular target: RNA-directed RNA polymerase (Hepacivirus hominis, UniProt O39930); experiment: Inhibitory activity against Hepatitis C virus RNA dependent RNA polymerase nonstructural protein 5B
Nucleic Acid [2] = experiment: Inhibitory activity against gamma human DNA polymerase was determined; type: nucleic-acid assay
[3] = molecular target: Human immunodeficiency virus type 1 reverse transcriptase (Human immunodeficiency virus 1, UniProt Q72547); experiment: Inhibitory activity against HIV-1 reverse transcriptase was determined
Nucleic Acid [4] = experiment: Inhibitory activity against beta human DNA polymerase was determined; type: nucleic-acid assay
Nucleic Acid [5] = experiment: Inhibitory activity against alpha human DNA polymerase was determined; type: nucleic-acid assay

Sequence of RNA-directed RNA polymerase (O39930 whole entry): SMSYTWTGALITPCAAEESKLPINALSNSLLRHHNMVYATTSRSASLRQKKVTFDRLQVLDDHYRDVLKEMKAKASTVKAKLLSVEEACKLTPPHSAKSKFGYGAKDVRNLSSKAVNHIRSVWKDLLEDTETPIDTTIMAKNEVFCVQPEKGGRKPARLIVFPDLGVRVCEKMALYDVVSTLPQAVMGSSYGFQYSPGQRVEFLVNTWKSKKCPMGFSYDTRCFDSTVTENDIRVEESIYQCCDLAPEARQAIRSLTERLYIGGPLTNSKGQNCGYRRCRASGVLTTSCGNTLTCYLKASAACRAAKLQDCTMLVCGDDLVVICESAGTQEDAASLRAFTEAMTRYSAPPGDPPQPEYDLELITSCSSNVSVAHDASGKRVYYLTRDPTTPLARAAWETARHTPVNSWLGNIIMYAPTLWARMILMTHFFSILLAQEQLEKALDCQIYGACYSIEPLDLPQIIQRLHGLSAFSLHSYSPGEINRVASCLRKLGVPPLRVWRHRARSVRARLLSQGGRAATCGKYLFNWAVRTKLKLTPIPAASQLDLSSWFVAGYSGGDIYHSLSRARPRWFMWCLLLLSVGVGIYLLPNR

O=C(O)C(=O)CC(=O)c1ccccc1OCc1ccccc1
IC50 [1]: 44 µM

O=C(O)C(=O)CC(=O)c1cccc(OCc2ccccc2)c1
IC50 [1]: 8 µM

O=C(O)C(=O)CC(=O)c1cccc(COc2ccccc2)c1
IC50 [1]: 30 µM

N#CCCCOc1cccc(/C(O)=C/C(=O)C(=O)O)c1
IC50 [1]: 2.5 µM

O=C(O)C(=O)CC(=O)c1ccco1
IC50 [1]: > 50 µM

O=C(O)C(=O)CC(=O)c1cccc(NC(=O)c2ccccc2)c1
IC50 [1]: 11 µM

O=C(O)C(=O)CC(=O)c1ccsc1
IC50 [1]: 4.5 µM

O=C(O)C(=O)CC(=O)c1cccc(NCc2ccccc2)c1
IC50 [1]: 16.7 µM

N#Cc1c(Cl)cccc1COc1cccc(/C(O)=C/C(=O)C(=O)O)c1
IC50 [1]: 0.11 µM

CC(C)(C)C(=O)CC(=O)C(=O)O
IC50 [1]: > 50 µM

CC(=O)CC(=O)C(=O)O
IC50 [1]: > 50 µM

CCCOc1ccccc1C(=O)CC(=O)C(=O)O
IC50 [1]: 3.9 µM

N#CCCCOc1ccc(OCc2ccccc2C#N)cc1/C(O)=C/C(=O)C(=O)O
IC50 [1]: > 50 µM

O=C(O)C(=O)CC(=O)c1ccccc1
IC50 [1]: 5.7 µM

O=C(O)C(=O)CCc1ccccc1
IC50 [1]: > 50 µM

N#Cc1ccc(Br)cc1COc1cccc(/C(O)=C/C(=O)C(=O)O)c1
IC50 [1]: 0.1 µM

N#Cc1ccccc1COc1cccc(/C(O)=C/C(=O)C(=O)O)c1
IC50 [1]: 0.23 µM

CCCCOc1ccccc1C(=O)CC(=O)C(=O)O
IC50 [1]: 10 µM

COC(=O)C(=O)CC(=O)c1ccccc1
IC50 [1]: > 50 µM

N#CCCCOc1ccccc1C(=O)CC(=O)C(=O)O
IC50 [1]: 0.35 µM

CCCCCOc1ccccc1C(=O)CC(=O)C(=O)O
IC50 [1]: 25 µM

O=C(CC(O)C(=O)O)c1ccccc1 (stereo not given)
IC50 [1]: > 50 µM

O=C(O)C(=O)CC(=O)c1cccnc1
IC50 [1]: > 50 µM

Cc1ccc(C(=O)CC(=O)C(=O)O)cc1
IC50 [1]: 5 µM

O=C(O)C(=O)CC(=O)c1ccncc1
IC50 [1]: > 50 µM

O=C(O)C(=O)CC(=O)C(c1ccccc1)c1ccccc1
IC50 [1]: > 50 µM

N#Cc1cccc(COc2cccc(/C(O)=C/C(=O)C(=O)O)c2)c1
IC50 [1]: 6.7 µM

CC(C)(C)c1ccc(C(=O)CC(=O)C(=O)O)cc1
IC50 [1]: > 50 µM

O=C(O)C(=O)CC(=O)c1cccc(NS(=O)(=O)c2ccccc2)c1
IC50 [1]: 16 µM

N#Cc1c(Cl)cc(Cl)cc1COc1cccc(/C(O)=C/C(=O)C(=O)O)c1
IC50 (Nucleic Acid [2]): > 5 µM
IC50 [3]: > 50 µM
IC50 (Nucleic Acid [4]): > 5 µM
IC50 [1]: 0.045 µM
IC50 (Nucleic Acid [5]): > 5 µM

CCc1ccc(C(=O)CC(=O)C(=O)O)cc1
IC50 [1]: 47 µM
